Measurements reported in patent US11433092B2, “Compositions and methods of use for wound healing” (SYNEDGEN, INC., priority 2013, dated 2022).

System: Methicillin Resistant Staphylococcus aureus (NRS 384/USA 300)
Experiment: Deep partial thickness biofilm prevention porcine wound model, MRSA
Type: in vivo
Method: The animals were prepared as described (above). Ninety-six (96) rectangular wounds measuring 10 mm×7 mm×0.5 mm deep were made in the paravertebral and thoracic area with a specialized electrokeratome fitted with a 7 mm blade. The wounds were separated from one another by 15 mm of unwounded skin and individually dressed. The wounds were then inoculated and treated. A fresh culture of Acinetobacter baumannii ATCC 19606 or Methicillin Resistant Staphylococcus aureus (NRS 384/USA 300) was used in these studies. The challenge inoculum suspension was prepared by scraping the overnight growth from a culture plate into 5 ml of normal saline. […] Serial dilutions were made until a concentration of 10^6 CFU/ml was achieved. […] In addition, serial dilutions of the suspension were plated onto selective media and the plates were incubated aerobically overnight (16-24 hours) at 37° C., in order to quantify the exact concentration of viable organisms used for this experiment. […]
Twelve (12) wounds were recovered from each treatment group on each assessment day (days 3 and 4). […] Serial dilutions were made from all culture samples, and the extent of microbiological contamination was assessed using the Spiral Plater System (Spiral Biotech, Norwood, Mass.). […] All plates were incubated aerobically overnight 24 hours at 37° C., after which time the number of viable colonies were counted.

C/C(=C\C(=O)OCCCCCCCCC(=O)O)C[C@@H]1OC[C@H](C[C@@H]2O[C@H]2[C@@H](C)[C@H](C)O)[C@@H](O)[C@H]1O [mupirocin]
biofilm infection at day 3 compared to day 4 (MRSA) (across treatment days): significant reduction in biofilm infection
biofilm infection (MRSA) (days 3 and 4): significantly reduced biofilm infection
